Series [1] deals with Lymphocytic leukemia P-388 tumor cells. Kind of series: Therapeutic effect upon lymphocytic leukemia P-388 tumor. Particulars: 24 hours after transplantation. The format is in vivo, CDF1 male mice. Here is the method:
Lymphocytic leukemia P-388 tumor cells (1×10^6 cells) were transplanted intraperitoneally into each of five CDF1 male mice weighing about 22 grams. Twenty-four hours after transplantation, 0.2 ml of a PBS (phosphate-buffered saline) solution of DC 113 was intraperitoneally administered to each mouse. For comparison, 0.2 ml of a PBS solution of mitomycin C was intraperitoneally administered to each of five mice 24 hours after transplantation. The life-prolonging effect of DC 113 thus established is shown below in Table 2 in terms of the T/C ratio [T mean number of days of survival after transplantation in the DC 113 group; C=mean number of days of survival after transplantation in the control group (intraperitoneally given 0.2 ml of PBS)].

The test system of series [2] is Bacillus subtilis No. 10707. Kind of series: Antimicrobial activity, MIC by agar dilution method (pH 7.0). The following applies: read-out: Minimum inhibitory concentration (MIC). The class given is cell-based. As to the method: (§1) Minimum inhibitory concentrations (MIC) against various bacteria were determined by the agar dilution method (pH 7.0).
(In general: In agar dilution the substance is mixed into plates at graded concentrations.)

Another series has as its system Escherichia coli ATCC 26. The series is described as above. Particulars: ATCC26, read-out: Minimum inhibitory concentration (MIC). The format is cell-based. As to the method:
as §1

The test system of series [3] is Klebsiella pneumoniae ATCC 10031. The description is as above. The format is cell-based. The following applies: ATCC10031, read-out: Minimum inhibitory concentration (MIC). Here is the method: as §1
In series [4] the test system is Salmonella typhosa ATCC 9992. The series is described as above. The format is cell-based. The following applies: Salmonella enterica, read-out: Minimum inhibitory concentration (MIC). As to the method: as §1
Series [5] relates to Staphylococcus aureus ATCC 6538P. The description is as above. The format is cell-based. The following applies: ATCC6538P, read-out: Minimum inhibitory concentration (MIC). As to the method: as §1
A short description of a further series: Acute toxicity (LD50). Particulars: mouse, in vivo; intravenous, mice.
The nature of a further series: Solubility. The format is physicochemical.
Series [6] in a line: Stability compared with DC-88A. The format is physicochemical. The following applies: relative to known compound DC-88A.

Values after ≈ are worked out from the molar mass of the structure shown.

With `CO[C@@]12[C@H](COC(N)=O)C3=C(C(=O)C(C)=C(N)C3=O)N1C[C@@H]1N[C@@H]12` [Mitomycin C, mitomycin C, reference compound], the “Life-prolonging effect (T/C)” value in [1] (6 mg/kg i.p.) turned out to be 151.

In the case of `COC(=O)c1cc2c([nH]1)C(=O)C=C1N(C(=O)c3cc4cc(OC)c(OC)c(OC)c4[nH]3)CC3CC123` (stereo not drawn) [DC 113], the MIC in series [2] amounted to 0.00065 µg/mL (≈ 0.00136 µM); with Escherichia coli ATCC 26, 0.064 µg/mL (≈ 0.134 µM); in [3], 0.021 µg/mL (≈ 0.044 µM); in series [4], 0.1 µg/mL (≈ 0.209 µM); in [5], 0.0013 µg/mL (≈ 0.00272 µM). Further, the LD50 in the series “Acute toxicity (LD50)” was found to be 0.14 mg/kg. For the same compound, the “Life-prolonging effect (T/C)” value in series [1] (0.0063 mg/kg i.p.) is 130; in series [1] (0.013 mg/kg i.p.), 110. For the same compound, the Solubility result in the series “Solubility” (in chloroform, DMSO, methanol, ethyl acetate and acetone) is recorded as “Soluble”; in “Solubility” (in water and n-hexane), “sparingly soluble”. Moreover, in series [6], the Stability entry is “more stable than the known compound DC-88A”.

As usually defined, the LD50 is the dose expected to kill half of the subjects tested.

Values taken from patent US5101038A, “Novel substance DC 113 and production thereof” (priority 1988, dated 1992).
